The numbers were not newly measured in US20240293547A1, “POLYMERIC PERFLUOROCARBON NANOEMULSIONS FOR ULTRASONIC DRUG UNCAGING” (The Board of Trustees of the Leland Stanford Junior …, priority 2017, published 2024), which cites them from elsewhere.

For the series the following is noted: for LogP: of the loaded drug.

Broadly, the log P is the decadic logarithm of the partition coefficient of the neutral form, usually between octanol and water. By LogP is commonly meant the decadic logarithm of the partition coefficient of the neutral form, usually between octanol and water. `COC(=O)C1=C(C)NC(C)=C(C(=O)OCCN(C)Cc2ccccc2)C1c1cccc([N+](=O)[O-])c1` (stereo not drawn) [Nicardipine]: the “log P” value is given as 3.8 and the LogP was 3.82. Take `Cc1cccc([C@H](C)c2cnc[nH]2)c1C` [Dexmedetomidine]: the LogP is recorded as 2.8.
